{"source": "patent US10442845B2", "about": "“Interferon analogs” (BiOrion Technologies B.V., priority 2009, dated 2019)", "key": {"[1]": {"test_system": "Human Hepatocytes (HepG2)", "assay": "ICAM1 expression in human hepatocytes (HepG2)", "format": "cell-based", "details": "1 ug/ml, 24 hrs, 18srRNA housekeeping control", "experimental": "Human Hepatocytes (HepG2) were plated in 12 well plates (1×10^5 cells/well). The cells were grown overnight in 5%/37° C./CO2 incubator. […] After 24 hrs of incubation, cells were lysed, RNA was isolated and reverse transcribed. The cDNA was used for the analysis of Inter-Cellular Adhesion Molecule 1 (ICAM1) expression, which is known to be induced in response to IFNγ. 18srRNA was used a housekeeping control."}, "mouse NIH3T3 fibroblasts": {"test_system": "mouse NIH3T3 fibroblasts", "assay": "Anti-fibrotic effects in mouse NIH3T3 fibroblasts (α-SMA staining)", "format": "cell-based", "details": "mimetic IFNγ 1 μg/ml, 48 hrs", "experimental": "Briefly, 3T3 fibroblasts were seeded in 24 well plates at the density of 6×10^4 cells/well, After 24 hrs, cells were starved in 0.5% FBS containing medium for overnight. Thereafter, cells were incubated in starvation medium with different compounds (PDGF 50 ng/ml, TGFβ 10 ng/ml, mimetic IFNγ 1 μg/ml, 50 ng/ml PDGF+1 μg/ml mimetic IFNγ and 10 ng/ml TGFβ+1 μg/ml mimetic IFNγ). After 48 hrs of incubation, cells were washed, fixed with ethanol:acetone (1:1) and stained for α-SMA (marker of activated fibroblasts)."}, "PDGFß-receptor": {"test_system": "PDGFß-receptor", "assay": "Binding of FITC-labeled PPB or BiPPB to cultured or freshly isolated primary cells", "design": "species or system rat", "details": "for binding (fluorescence microscopy): FITC-coupled, 10 μg/ml, 2 h, room temperature, rat hepatic stellate cells and other cell types tested", "experimental": "The binding of BiPPB was performed in primary freshly isolated rat hepatic stellate cells. Cells were seeded in the 8-well glass plates (Lab-Tek, Nunc, Naperville, Ill.) at 30,000 cells/well in the culture medium. After overnight incubation at 37° C./5% CO2, cells were washed with PBS and subsequently incubated with FITC-labeled PPB (monocyclic) or BiPPB (bicyclic: 10 μg/ml) at room temperature. To block the binding, anti-PDGF-βR IgG was added to the cells 1 h before FITC coupled PPB or BiPPB. After 2 h, cells were washed 3 to 4 times with cold PBS and fixed with 4% paraformaldehyde. The nuclei were counterstained with DAPI and mounted in citifluor (anti-fade reagent) and visualized under fluorescent microscope.\nSimilar binding experiments were performed in primary freshly isolated human myofibroblasts, mouse 3T3 fibroblasts and human hepatic stellate cells (LX2). For human Hepatic stellate cells, the sequence of BiPPB was as follows: […]"}, "[2]": {"test_system": "established advanced liver fibrosis mouse model", "assay": "Established advanced liver fibrosis mouse model (8 weeks CCl4), liver section staining", "format": "in vivo", "experimental": "Male balb/c mice (20-22 g) were treated with olive oil or increasing doses of CCl4 (week 1: 0.5 ml/kg; week 2: 0.8 ml/kg and week 3-8: 1 ml/kg prepared in olive oil) twice weekly by intra-peritoneal injections for 8 weeks. In week 7 and 8, mice were treated intravenously with PBS, mimeticIFNγ-PEG or MimeticIFNγ-PEG-BiPPB (5 μg/mice, thrice per week). All mice were sacrificed at week 8; blood and liver samples were collected for subsequent measurements. The liver sections were stained for Collagen I and desmin, CD68, 33D1 and MHC class II."}, "[3]": {"test_system": "liver fibrosis models induced with CCl4 in mice", "assay": "4 days (acute) and 8 weeks (chronic) CCl4 liver fibrosis models in mice", "format": "in vivo, mouse", "experimental": "In vivo, the targeted conjugate was examined in 4 days (acute) and 8 weeks (chronic) liver fibrosis models induced with CCl4 in mice. Several fibrotic parameters and infiltration of inflammatory cells were assessed in the livers using immunohistochemistry and gene expression analysis."}, "[4]": {"test_system": "acute CCL4-induced liver injury mouse model", "assay": "Blood count analysis (side effects) in acute CCl4-induced liver injury mouse model", "format": "in vivo", "details": "50,000 U/mice at day 2 and 3; p<0.0025", "experimental": "At day 1, the animals were given a single intra-peritoneal dose (1 ml/kg) of carbon tetrachloride (CCl4) in olive oil or olive oil (controls n=6). After 24 hrs of CCl4 injection, at day 2 and 3, animals were treated either with PBS (n=6), 50,000 U/mice of IFNγ (n=6), 50,000 U/mice of mimetic IFNγ (n=5), 50,000 U/mice of IFNγ-BiPPB (n=6), 50,000 U/mice of Mimetic IFNγ-BiPPB (n=6)."}, "[5]": {"details": "5 μg/mice i.v. thrice per week, week 7 and 8, vs untreated CCl4-mice"}}, "note": "Bridge positions count the residues as written; N and C are the ends. Ends that are not written are not given here.", "data": [{"molecule": "FEVNNPQVQRQAFNELIRVVHQLLPESSLRKRKRSR [mouse truncated IFNγ, signaling moiety of murine IFNγ (mimIFNγ), without targeting domain]", "values": [{"measurement": "ICAM1 expression", "setting": "[1]", "result": "neither mouse truncated IFNγ nor Lac-HSA induced ICAM1 expression"}, {"measurement": "ICAM1 expression", "setting": "[1]; listed as mouse (truncated) INFγ", "result": "ineffective"}]}, {"molecule": "human IFNγ: human interferon gamma, positive control in human hepatocytes", "values": [{"measurement": "ICAM1 expression", "setting": "[1]", "result": "upregulated ICAM1 expression"}]}, {"molecule": "AKFEVNNPQVQRQAFNELIRVVHQLLPESSLRKRKRSR (listed as Mus musculus) [Recombinant mimetic IFNγ]", "values": [{"measurement": "anti-fibrotic effects (α-Smooth muscle actin staining)", "setting": "mouse NIH3T3 fibroblasts", "result": "anti-fibrotic effects"}]}, {"molecule": "C(1)S R N L I D C(1)G G G D G G C(2)S R N L I D C(2) (CSRNLIDCGGGDGGCSRNLIDC; disulfide 1-8, 15-22; also: FITC label) [BiPPB, Bicyclic peptide against the PDGF-beta-receptor; KGSGSGG linker variant for human hepatic stellate cells]", "values": [{"measurement": "binding (fluorescence microscopy)", "setting": "PDGFß-receptor", "result": "specifically binds"}, {"measurement": "binding (fluorescence microscopy)", "setting": "PDGFß-receptor; listed as FITC-coupled BiPPB", "result": "significant binding"}, {"measurement": "species specificity of binding", "setting": "PDGFß-receptor; Myo-fibroblast-like cells of rat, mouse and human", "result": "species non-specific"}, {"measurement": "binding after blocking with PDGF receptor antibody", "setting": "PDGFß-receptor; anti-PDGF-βR IgG added 1 h before", "result": "almost completely blocked"}]}, {"molecule": "INFγ: full length mouse Interferon gamma, SEQ ID NO: 54 (protein, listed as Mus musculus) MNATHCILALQLFLMAVSGCYCHGTVIESLESLNNYFNSSGIDVEEKSLFLDIWRNWQKDGDMKILQSQIISFYLRLFEVLKDNQAISNNISVIESHLITTFFSNSKAKKDAFMSIAKFEVNNPQVQRQAFNELIRVVHQLLPESSLRKRKRSRC", "values": [{"measurement": "collagen I staining (liver sections)", "setting": "[2]; [5]", "result": "only a small reduction"}, {"measurement": "desmin staining (liver sections)", "setting": "[2]; [5]", "result": "only a small reduction"}, {"measurement": "MHCII expression in livers", "setting": "[2]; chronic CCl4 model", "result": "increased MHCII expression"}, {"measurement": "infiltration of inflammatory cells (CD68+ macrophages, neutrophils, 33D1+ dendritic cells) in livers", "setting": "[2]; chronic CCl4 model", "result": "induced infiltration of inflammatory cells"}, {"measurement": "fibrotic parameters", "setting": "[3]; both acute and chronic liver fibrosis models", "result": "only a moderate reduction"}, {"measurement": "MHCII expression", "setting": "[3]; data not shown", "result": "increased MHCII expression"}, {"measurement": "infiltration of inflammatory cells (CD68+ macrophages, neutrophils, 33D1+ dendritic cells) / inflammatory response", "setting": "[3]; data not shown", "result": "induced infiltration of inflammatory cells"}, {"measurement": "reduction in platelet count (PLT)", "setting": "[4]", "result": "reduction in platelet count"}]}]}
